From ChEMBL document CHEMBL4219209, “Design, synthesis and biological evaluation of novel tetrahydroisoquinoline derivatives as P-glycoprotein-mediated multidrug resistance inhibitors” (Bioorg Med Chem, 2018)
pEC50, pIC50: −log10 of the molar value. Counter-ions that a name gives are not always drawn. The source made the active and inactive calls. No cut-off for these calls is given here.

How the values were obtained:
[1] = test system: K562; assay: Cytotoxicity against human K562 cells assessed as reduction in cell viability after 48 hrs by MTT assay; type: cell-based; conditions: K562, 48 h
[2] = test system: K562/A02; assay: Cytotoxicity against human K562/A02 cells overexpressing P-gp assessed as reduction in cell viability after 48 hrs by MTT assay; type: ADME, cell-based; conditions: K562/A02, 48 h
[3] = species: Homo sapiens; assay: (§1) Inhibition of P-gp in human K562/A02 cells assessed as potentiation of adriamycin-induced cytotoxicity by measuring fold reduction in adriamycin IC50 at 5 uM after 48 hrs by MTT assay relative to adriamycin alone; type: cell-based
[4] = species: Homo sapiens; assay: as §1, with “uM preincubated for 24 hrs followed by compound wash out and subsequent addition of adriamycin measured” for “uM”; type: cell-based
[5] = species: Homo sapiens; assay: as §1, with “uM preincubated for 24 hrs followed by compound wash out and subsequent addition of adriamycin after 6 hrs measured” for “uM”; type: cell-based
[6] = species: Homo sapiens; assay: as §1, with “uM preincubated for 24 hrs followed by compound wash out and subsequent addition of adriamycin after 12 hrs measured” for “uM”; type: cell-based
[7] = species: Homo sapiens; assay: as §1, with “uM preincubated for 24 hrs followed by compound wash out and subsequent addition of adriamycin after 24 hrs measured” for “uM”; type: cell-based
[8] = species: Homo sapiens; assay: Inhibition of P-gp in human K562/A02 cells assessed as potentiation of adriamycin-induced cytotoxicity by measuring fold reduction in adriamycin IC50 at 5 uM preincubated for 24 hrs followed by adriamycin addition measured after 48 hrs by MTT assay relative to adriamycin alone; type: cell-based
[9] = test system: K562; assay: Inhibition of P-gp in human K562 cells assessed as increase in Rh123 accumulation at 5 uM after 2.5 hrs by flow cytometry method; type: cell-based
[10] = test system: K562/A02; conditions: Homo sapiens, 5 uM
Description: Inhibition of P-gp in human K562/A02 cells assessed as increase in adriamycin accumulation at 5 uM after 2.5 hrs by flow cytometry method

[11] = species: Homo sapiens; assay: Inhibition of P-gp in human K562/A02 cells assessed as potentiation of adriamycin-induced cytotoxicity by measuring fold reduction in adriamycin IC50 at 2.5 uM after 48 hrs by MTT assay relative to adriamycin alone; type: cell-based
[12] = species: Homo sapiens; assay: Inhibition of P-gp in human K562/A02 cells assessed as potentiation of adriamycin-induced cytotoxicity by measuring fold reduction in adriamycin IC50 at 1 uM after 48 hrs by MTT assay relative to adriamycin alone; type: cell-based
[13] = species: Homo sapiens; assay: Inhibition of P-gp in human K562/A02 cells assessed as potentiation of adriamycin-induced cytotoxicity by measuring fold reduction in adriamycin IC50 at 0.5 uM after 48 hrs by MTT assay relative to adriamycin alone; type: cell-based
[14] = species: Homo sapiens; assay: Inhibition of P-gp in human K562/A02 cells assessed as potentiation of adriamycin-induced cytotoxicity by measuring fold reduction in adriamycin IC50 at 0.25 uM after 48 hrs by MTT assay relative to adriamycin alone; type: cell-based
[15] = species: Homo sapiens; assay: Inhibition of P-gp in human K562/A02 cells assessed as potentiation of adriamycin-induced cytotoxicity by measuring fold reduction in adriamycin IC50 at 0.1 uM after 48 hrs by MTT assay relative to adriamycin alone; type: cell-based
[16] = species: Homo sapiens; assay: Inhibition of P-gp in human K562/A02 cells assessed as potentiation of adriamycin-induced cytotoxicity by measuring fold reduction in adriamycin IC50 at 0.05 uM after 48 hrs by MTT assay relative to adriamycin alone; type: cell-based
[17] = species: Homo sapiens; assay: Inhibition of P-gp in human K562/A02 cells assessed as potentiation of adriamycin-induced cytotoxicity by measuring fold reduction in adriamycin IC50 at 0.025 uM after 48 hrs by MTT assay relative to adriamycin alone; type: cell-based
[18] = (§2) Inhibition of P-gp in human K562/A02 cells assessed as potentiation of adriamycin-induced cytotoxicity after 48 hrs by MTT assay; type: cell-based; conditions: K562/A02, 48 h
[19] = species: Homo sapiens; assay: as §2; type: cell-based
[20] = test system: K562/A02; assay: Inhibition of P-gp in human K562/A02 cells assessed as increase in adriamycin accumulation after 2.5 hrs by flow cytometry method; type: cell-based
[21] = test system: K562; assay: Inhibition of P-gp in human K562 cells assessed as Rh123 efflux at 5 uM after 90 mins by fluorospectro photometric analysis (reference value: >70%); type: cell-based; parameters: scale not given: the % may be the effect or the level left

Structure (SMILES) | pIC50 [1] | pIC50 ([2]; read-out: IC50) | Ratio IC50 [3] | also measured
COc1cc2c(cc1OC)CN(CCn1cc(CNc3ccccc3C(=O)NCC(C)C)nn1)CC2 | 4.21 | < 4.00 | 1.7 | –
COc1cc2c(cc1OC)CN(CCn1cc(CNc3ccccc3C(=O)NCCc3ccccc3)nn1)CC2 | 4.37 | < 4.00 | 4.3 | –
COc1cc2c(cc1OC)CN(CCn1cc(CNc3ccccc3C(=O)Nc3ccc(OC(F)(F)F)cc3)nn1)CC2 | 4.04 | < 4.00 | 21.4 | –
COc1cc2c(cc1OC)CN(CCc1ccc(NC(=O)c3cc(OC)c(OC)cc3NC(=O)c3cnc4ccccc4c3)cc1)CC2 | – | – | 49.4 | Ratio IC50 [4]: 17; Ratio IC50 [5]: 10.3; Ratio IC50 [6]: 6.2; Ratio IC50 [7]: 3.6; Ratio IC50 [8]: 32.1
COc1cc2c(cc1OC)CN(CCn1cc(CNc3ccccc3C(=O)Nc3ccc4c(c3)OCO4)nn1)CC2 | 4.38 | < 4.00 | 4.6 | –
COc1ccc(CCN(C)CCCC(C#N)(c2ccc(OC)c(OC)c2)C(C)C)cc1OC (stereo unspecified) [VERAPAMIL] | 4.09 | – | 3.3 | pIC50 [2]: 4.17; Ratio IC50 [8]: 4.8; inhibition [9]: Active; inhibition [10]: Active
COc1cccc2c1C(=O)c1c(O)c3c(c(O)c1C2=O)C[C@@](O)(C(=O)CO)C[C@@H]3O[C@H]1C[C@H](N)[C@H](O)[C@H](C)O1 [DOXORUBICIN HYDROCHLORIDE] | 6.01 | 4.18 | – | –
COc1cc2c(cc1OC)CN(CCn1cc(CNc3ccccc3C(=O)Nc3ccc(F)c(F)c3)nn1)CC2 | 4.06 | < 4.00 | 3.7 | –
COc1cc2c(cc1OC)CN(CCn1cc(CNc3ccccc3C(=O)Nc3ccccc3)nn1)CC2 | 4.46 | < 4.00 | 2.1 | –
COc1ccc(NC(=O)c2ccccc2NCc2cn(CCN3CCc4cc(OC)c(OC)cc4C3)nn2)cc1 | 4.23 | < 4.00 | – | –
COc1cc2c(cc1OC)CN(CCn1cc(CNc3ccccc3C(=O)NCc3ccccc3)nn1)CC2 | 4.30 | < 4.00 | 4.5 | –
COc1cc2c(cc1OC)CN(CCn1cc(CNc3ccccc3C(=O)Nc3cc(OC)c(OC)c(OC)c3)nn1)CC2 | 4.37 | < 4.00 | 1.3 | –
COc1cc2c(cc1OC)CN(CCn1cc(CNc3ccccc3C(=O)Nc3ccc(F)cc3)nn1)CC2 | 4.21 | < 4.00 | 3.7 | –
CCCCc1ccc(NC(=O)c2ccccc2NCc2cn(CCN3CCc4cc(OC)c(OC)cc4C3)nn2)cc1 | 4.12 | < 4.00 | 15.5 | –
COc1cc2c(cc1OC)CN(CCn1cc(CNc3ccccc3C(=O)NC3CCOCC3)nn1)CC2 | 4.23 | < 4.00 | 8.2 | –
COc1cc2c(cc1OC)CN(CCn1cc(CNc3ccccc3C(=O)Nc3ccc(C(C)(C)C)cc3)nn1)CC2 | 4.34 | < 4.00 | 34.2 to 39 | Ratio IC50 [11]: 13.1; Ratio IC50 [12]: 7.3; Ratio IC50 [13]: 3.8; Ratio IC50 [14]: 2.3; Ratio IC50 [15]: 1.3; Ratio IC50 [16]: 1.2; Ratio IC50 [17]: 1.2; pEC50 [18]: 6.60; inhibition [19]: Dose-dependent effect; Ratio IC50 [4]: 11.6; Ratio IC50 [5]: 8.1; Ratio IC50 [6]: 5; Ratio IC50 [7]: 3; Ratio IC50 [8]: 40.7; inhibition [20]: Dose-dependent effect; inhibition [9]: Active; Activity [21]: < 40%
COc1cc2c(cc1OC)CN(CCn1cc(CNc3ccccc3C(=O)Nc3ccc(Cl)cc3)nn1)CC2 | 4.36 | < 4.00 | 2.6 | –
COc1ccc(CCNC(=O)c2ccccc2NCc2cn(CCN3CCc4cc(OC)c(OC)cc4C3)nn2)cc1OC | 4.21 | < 4.00 | 1.2 | –
COc1cc2c(cc1OC)CN(CCn1cc(CNc3ccccc3C(=O)Nc3ccc([N+](=O)[O-])cc3)nn1)CC2 | 4.36 | < 4.00 | 2.6 | –
COc1ccc(NC(=O)c2ccccc2NCc2cn(CCN3CCc4cc(OC)c(OC)cc4C3)nn2)cc1OC | 4.22 | < 4.00 | 1.3 | –
